Consider one molecule from patent US7074922B2, “Method for producing the tautomeric form of (1) of 2,4,6-trianilino-p-(carbo-1′-ethylhexyl-1′oxyl)-1, 3, 5-triazine” (BASF Aktiengesellschaft, priority 2002, dated 2006).

Molecules are shown by their SMILES.

The data set is described as follows: Storage stability of solutions in cosmetic oils (clouding and precipitation). The note with it: after 2 days. In kind it is physicochemical. An excerpt:
Storage Stability of Solutions of the Tautomeric Form I in Cosmetic Oils
Both solutions were still clear after 2 days.

Regarding `CCCCC(CC)COC(=O)c1ccc(Nc2nc(Nc3ccc(C(=O)OCC(CC)CCCC)cc3)nc(Nc3ccc(C(=O)OCC(CC)CCCC)cc3)n2)cc1` (centres unmarked) [I, 2,4,6-trianilino-p-(carbo-2′-ethylhexyl-1′-oxy)-1,3,5-triazine], the “appearance of solution on storage” value is on record as “still clear” (solution in C8–C10-coconut fatty acid triglyceride) and “still clear” (solution in cetylstearyl 2-ethylhexanoate).
